Patent US20050119337A1, “Methods of application of Schisandrin B in the preparation of anticancer medications” (priority 2003, published 2005)

Columns and labels:
[1] = test system: KB; assay: Apoptosis induced by doxorubicin, Hoechst 33342/propidium iodide staining; type: cell-based
Excerpt: (§1) Cells were collected and stained with fluorescent dyes Hoechst 33342 and propidium iodide. Hoechst 33342 stains the nuclei of cells with the color blue, and propidium iodide exclusively stains dead cells with the color of red. Accordingly, while Hoechst 33342 only stained the living cells blue, the dead cells were stained by both dyes with the colors of yellow, orange or red. The percentage of dead cells was counted under fluorescent microscope.

[2] = test system: KBV200; assay: as above; type: cell-based, human; details: KBV200, A5 + S10: doxorubicin 5 μg/ml and Schisandrin B 10 μg/ml, 24 hours
Excerpt: as §1

[3] = test system: KBV200-implanted tumor; assay: In vivo reversal of drug resistance, KBV200-implanted tumor; set-up: species or system Balb/c nude mice; details: for MST / T/C: Balb/c nude mice bearing KBV200-implanted tumor; for MST: doxorubicin 5 mg/kg i.v., Schisandrin B 50 mg/kg gastric intubation; for T/C: survival period in the test group / control group x 100
Experimental: Thirty nine Balb/c nu/nu female mice were inoculated subcutaneously with KBV200 cells (5×10^6 KBV200 cells/each mouse) on day 0. […] Mean body weights were recorded daily. All mice were observed once per day (or more) for mortality and signs of ill health (i.e., weight loss, change in appetite, or behavioral changes). Therapeutic comparisons were made between control and treatment groups by determining the tumor size. Tumor size was monitored approximately every other day by caliper measurements and calculated according to the formula [Tumor weight=(length×width^2)÷2]. The median survival times (MST) and the percent increase in life span (% ILS) were calculated as: % ILS=[(MSTtreatment/MSTcontrol)−1]×100.
“MST” represents median survival time. The survival rate (T/C %) was calculated by following equation: T/C(%)=[Average survival period in the test group/average survival period in the control group]×100. *P<0.05 compared to saline, vehicle, or Schisandrin B alone.

[4] = test system: KBV200 cells; assay: DNA fragmentation, agarose electrophoresis; type: cell-based, human; details: FIG. 13
Excerpt: The DNA of above cells was also extracted and subjected to agarose electrophoresis.

[5] = test system: human epidermoid carcinoma MDR cell line KBV200; assay: Reversal of drug resistance of KBV200, MTT assay, 72 h; type: cell-based
Experimental: (§2) In this embodiment, the IC50 of anticancer drugs in the presence or absence of Schisandrin B toward MDR cells was determined.
(§3) MTT assays were carried out in triplicate against human leukemia MDR cell line K562/adr and human epidermoid carcinoma MDR cell line KBV200. MTT assays as described previously (X. Hu, et al., Chemotherapy 41:296-305 (1995)) were used to determine the cytotoxicity of each anticancer drug in the presence or absence of Schisandrin B or verapmil.
Cells were treated with specific anticancer drugs as set forth therein. […] “SchB” represents cells treated with anticancer drugs in the presence of Schisandrin B (10 μg/ml).

[6] = test system: KBV200; assay: Cell cycle distribution and hypodiploid cells, propidium iodide flow cytometry; type: cell-based, human
Experimental: The test cells were also analyzed by flow cytometry after being subjected to propidium iodide staining.

[7] = test system: K562/vcr; assay: Reversal of drug resistance, MTT assay, 48 h; type: cell-based; details: for increase of sensitivity of K562/vcr to doxorubicin: FIG. 1
Experimental: To illustrate a method for reversal of drug resistance by application of Schisandrin B, cell lines K562/adr, K562/vcr (X. […] H. […] Cells were cultured in RPMI-1640 medium containing 10% fetal calf serum. […] The logarithmic growing cells were seeded into a 96 well plate (20,000 cells/well). Specific anticancer drugs (set forth in Table 1) and Schisandrin B in combination were added into the wells containing the select cell lines. […] Cell viability was assessed by MTT assays as described in X.

[8] = test system: human leukemia MDR cell line K562/adr; assay: Reversal of drug resistance of K562/adr, MTT assay, 72 h; type: cell-based; details: K562/adr
Experimental: as §2, §3
Cells were treated with specific anticancer drugs as set forth therein. “Ctrl” represents control cells treated with anticancer drugs in the absence of Schisandrin B or verapamil. “SchB” represents cells treated with anticancer drugs in the presence of Schisandrin B (10 μg/ml).

[9] = molecular target: T1, P-glycoprotein (Homo sapiens, UniProt P08183); assay: Intracellular doxorubicin accumulation, flow cytometry; type: cell-based; details: doxorubicin 5 μg/ml, Schisandrin B 10 μg/ml, 60-120 minutes, FIG. 3
T1 construct: The cell line selected was MDR cancer cell K562/adr and its parental drug sensitive cell K562; endogenous in cells; host or cells: K562/adr (doxorubicin-selected human leukemia MDR cell line)
T1 sequence (P08183 whole entry): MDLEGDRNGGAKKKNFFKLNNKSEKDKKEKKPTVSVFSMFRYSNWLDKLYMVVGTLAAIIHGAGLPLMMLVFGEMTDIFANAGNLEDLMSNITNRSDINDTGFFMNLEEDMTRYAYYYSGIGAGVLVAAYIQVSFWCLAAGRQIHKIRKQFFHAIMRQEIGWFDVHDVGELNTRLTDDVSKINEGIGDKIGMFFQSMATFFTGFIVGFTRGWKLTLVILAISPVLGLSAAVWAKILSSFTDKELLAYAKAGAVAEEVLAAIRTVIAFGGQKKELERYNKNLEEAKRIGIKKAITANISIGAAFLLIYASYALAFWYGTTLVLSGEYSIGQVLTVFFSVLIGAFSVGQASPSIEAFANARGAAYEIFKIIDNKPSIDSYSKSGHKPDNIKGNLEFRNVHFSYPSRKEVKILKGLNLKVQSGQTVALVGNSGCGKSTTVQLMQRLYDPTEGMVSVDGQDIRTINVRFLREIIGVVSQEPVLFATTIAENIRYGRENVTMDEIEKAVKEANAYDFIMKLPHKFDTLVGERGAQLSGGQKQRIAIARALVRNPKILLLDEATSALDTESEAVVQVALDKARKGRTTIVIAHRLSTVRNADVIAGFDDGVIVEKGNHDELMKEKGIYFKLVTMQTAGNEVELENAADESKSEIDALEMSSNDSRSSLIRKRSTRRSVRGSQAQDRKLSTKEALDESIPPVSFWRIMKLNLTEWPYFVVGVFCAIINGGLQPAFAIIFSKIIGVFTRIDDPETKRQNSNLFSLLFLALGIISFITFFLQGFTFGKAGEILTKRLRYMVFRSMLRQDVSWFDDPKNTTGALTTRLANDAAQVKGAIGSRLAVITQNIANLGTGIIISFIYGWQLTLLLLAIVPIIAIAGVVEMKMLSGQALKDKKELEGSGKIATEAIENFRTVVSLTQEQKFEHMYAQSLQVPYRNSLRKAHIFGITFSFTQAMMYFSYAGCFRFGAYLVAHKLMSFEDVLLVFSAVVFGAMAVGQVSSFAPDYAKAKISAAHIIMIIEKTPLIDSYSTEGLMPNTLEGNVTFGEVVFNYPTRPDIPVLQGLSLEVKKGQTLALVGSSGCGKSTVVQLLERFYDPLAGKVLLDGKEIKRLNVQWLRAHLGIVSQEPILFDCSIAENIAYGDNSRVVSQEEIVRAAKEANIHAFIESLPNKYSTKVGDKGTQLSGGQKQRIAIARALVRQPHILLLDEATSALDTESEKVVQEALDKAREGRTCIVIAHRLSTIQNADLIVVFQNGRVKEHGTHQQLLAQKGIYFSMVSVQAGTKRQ
Experimental: The cell line selected was MDR cancer cell K562/adr and its parental drug sensitive cell K562. Cells were cultured in RPMI-1640 medium containing 10% fetal calf serum in cell-culture flasks.

[10] = test system: KBV200 cells; assay: Intracellular distribution of daunorubicin and Rh-123, fluorescent microscope; type: cell-based, human; details: KBV200, Schisandrin B 5 and 10 μg/ml, 1 hour, FIGS. 10 and 11
Experimental: To illustrate the effects of Schisandrin B on the intracellular distribution in MDR cancer cells, MDR cell KBV200 and its parental drug sensitive cell line KB were selected for use. […] The respective cultures were incubated at 37° C. for 1 hour, washed with ice-cold PBS, and the cells were observed under fluorescent microscope.

[11] = molecular target: T1, P-glycoprotein; assay: [3H]Azidopine photoaffinity labeling of P-glycoprotein; type: binding; details: KBV200 cytoplasmic membranes, 1.0 μM azidopine, FIG. 14
Excerpt: To illustrate that Schisandrin B physically interacts with P-glycoprotein according to the present disclosure, [^3H]Azidopine Photoaffinity Labeling of P-glycoportein in the presence or absence of Schisandrin B was used. [^3H]Azidopine is a chemical having unique properties that enable it to interact with P-glycoprotein. If Schisandrin B is also able to interact with P-glycoprotein, the binding of P-glycoprotein with [^3H]Azidopine would be reduced in the presence of Schisandrin B.
The cytoplasmic membranes (enriched with P-glycoprotein) of MDR cell KBV200 were prepared according to the methods as described in May GL, et al., Int. J. Cancer 42:728-733(1988) and Hyafil F, et al., Cancer Res. 53:4595-4602(1993). Membranes were incubated with Schisandrin B for 40 minutes in the dark, followed by 1 hour incubation with 1.0 μM [H]azidopine. After UV irradiation for 2 minutes, the photolabeled membranes were subjected to SDS-PAGE on a 7.5% gel, followed by fluorography.

[12] = molecular target: T1, P-glycoprotein; assay: Rh-123 accumulation, flow cytometry; type: cell-based; details: Rh-123 2 μg/ml, Schisandrin B 10 μg/ml, FIG. 6
Experimental: P-glycoprotein functions as a drug pump that unilaterally pumps the anticancer drugs out of MDR cancer cells. Inhibition of P-glycoprotein results in an increase of the intracellular drug concentration within cancer cells. The inhibition of P-glycoprotein is assessed by analyzing the anticancer drug concentration within the test cells in the presence or absence of Schisandrin B. […] Cells were collected at intervals of 15, 30, 60, 90, and 120 minutes after incubation. […] At least 50,000 cells were analyzed for each sample.

[13] = molecular target: T1, P-glycoprotein; assay: Daunorubicin accumulation, flow cytometry; type: cell-based; details: daunorubicin 2 μg/ml, Schisandrin B 10 μg/ml, FIG. 5
Experimental: P-glycoprotein functions as a drug pump that unilaterally pumps the anticancer drugs out of MDR cancer cells. Inhibition of P-glycoprotein results in an increase of the intracellular drug concentration within cancer cells. The inhibition of P-glycoprotein is assessed by analyzing the anticancer drug concentration within the test cells in the presence or absence of Schisandrin B. […] Cells were collected at intervals of 15, 30, 60, 90, 120, and 160 minutes after incubation.

[14] = test system: K562 cells; assay: Cytotoxicity of Schisandrin B, MTT assay, 48 h; type: cell-based; details: 10 and 20 μg/ml, FIG. 2
Experimental: (§4) To illustrate the cytotoxicity of Schisandrin B according to the present disclosure, cell lines selected for use include cancer cell lines K562, K562/Adr, K562/vcr; primary cultured cells, including human peripheral blood mononuclear cells (PBMC) and human fibroblast cells; noncancer cell lines, including human bone marrow stromal cell D6p4 and human liver cell HL-7702. Cells were cultured in RPMI-1640 medium containing 10% fetal calf serum. The logarithmic growing cells were seeded into a 96 well plate (20,000 cells/well).

[15] = test system: normal human cells (PBMC, fibroblast cells, bone marrow stromal cell D6p4, liver cell HL-7702); assay: Cytotoxicity of Schisandrin B, MTT assay, 48 h; type: cell-based; details: 10 and 20 μg/ml, FIG. 2
Experimental: as §4

[16] = test system: MDR cells (K562/Adr, K562/vcr); assay: Cytotoxicity of Schisandrin B, MTT assay, 48 h; type: cell-based; details: 10 and 20 μg/ml, FIG. 2
Experimental: as §4

[17] = test system: K562/adr; assay: Reversal of resistance to doxorubicin (FIG. 1); type: cell-based, human; details: in the presence of Schisandrin B
Experimental: To illustrate a method for reversal of drug resistance by application of Schisandrin B, cell lines K562/adr, K562/vcr (X. Hu et al., Chemotherapy 41:296-305 (1995)), and KBv200 (X. H. Zhang et al., Yao Xue Xue Bao 29:246-251 (1994)) were selected for use because these particular cell lines are characteristic of overexpression of P-glycoprotein. Cells were cultured in RPMI-1640 medium containing 10% fetal calf serum. The test compound Schisandrin B was dissolved in dimethyl sulfoxide (DMSO) (10 mg/ml as stock). The logarithmic growing cells were seeded into a 96 well plate (20,000 cells/well). Specific anticancer drugs (set forth in Table 1) and Schisandrin B in combination were added into the wells containing the select cell lines. Controls for each anticancer drug type without Schisandrin B were also seeded into the 96 well plate. […] Cell viability was assessed by MTT assays as described in X. Hu et al., Chemotherapy 41:296-305 (1995).

[18] = KBV200, A1: doxorubicin 1 μg/ml
[19] = KBV200, A5: doxorubicin 5 μg/ml
[20] = KBV200, doxorubicin 1 μg/ml and Schisandrin B 10 μg/ml
[21] = KBV200, doxorubicin 5 μg/ml and Schisandrin B 10 μg/ml

With COc1cccc2c1C(=O)c1c(O)c3c(c(O)c1C2=O)C[C@@](O)(C(=O)CO)C[C@@H]3O[C@H]1C[C@H](N)[C@H](O)[C@H](C)O1 [Doxorubicin, doxorubicin] the “% apoptosis” value ([1]; A1: doxorubicin 1 μg/ml) was over 90%, the “% apoptosis” value ([1]; A5: doxorubicin 5 μg/ml) was over 90% and the “% apoptosis” value [2] was over 90%. For the same molecule, the “tumor sizes versus control groups” value ([3]; Balb/c nu/nu mice, KBV200 s.c., doxorubicin 5 mg/kg via tail vein, Schisandrin B via gastric intubation, days 11, 14, 18, 21, 25, FIG. 15) was “not significantly different”, the MST [3] was “not significantly prolonged” and the T/C [3] was 111.1%. The DNA fragmentation ([4]; KBV200, doxorubicin combined with Schisandrin B (10 μg/ml)) was “demonstrated DNA fragmentation”, the DNA fragmentation ([4]; KBV200, doxorubicin in the absence of Schisandrin B) was “did not show the similar DNA fragmentation” and the IC50 ([5]; Homo sapiens, anticancer drug alone, KBV200, 72 h, read-out: IC50 Control) was 0.327 ± 0.213 µg/mL. The “RF (verapamil)” value ([5]; IC50 in the absence / IC50 in the presence of verapamil (6 μg/ml), KBV200) was 10.11, the “IC50 Schisandrin B” value ([5]; anticancer drug in the presence of Schisandrin B (10 μg/ml), KBV200) was 0.0691 ± 0.0137 µg/mL and the IC50 verapamil ([5]; anticancer drug in the presence of verapamil (6 μg/ml), KBV200) was 0.0324 ± 0.0086 µg/mL. The “Cell cycle distribution G0/G1” value [6, 18] was 44.76%, the “Cell cycle distribution G2/M” value [6, 18] was 10.14% and the “Cell cycle distribution S” value [6, 18] was 45.09%. The hypodiploid % [6, 18] was 1.21%, the “Cell cycle distribution G0/G1” value [6, 19] was 48.03% and the “Cell cycle distribution G2/M” value [6, 19] was 9.60%. For the same molecule, the “Cell cycle distribution S” value [6, 19] was 42.37%, the hypodiploid % [6, 19] was 7.51% and the “Cell cycle distribution G0/G1” value [6, 20] was 54.04%. For the same molecule, the “Cell cycle distribution G2/M” value [6, 20] was 5.66%, the “Cell cycle distribution S” value [6, 20] was 40.30% and the hypodiploid % [6, 20] was 24.10%. For the same molecule, the “Cell cycle distribution G0/G1” value [6, 21] was 58.94%, the “Cell cycle distribution G2/M” value [6, 21] was 1.70% and the “Cell cycle distribution S” value [6, 21] was 39.36%. For the same molecule, the hypodiploid % [6, 21] was 70.31%, the IC50 ([7]; Homo sapiens, anticancer drug toward K562/vcr in the absence of Schisandrin B, 48 h, read-out: IC50 Control) was 4.89 ± 0.21 µg/mL and the “RF (Reversal Folds)” value ([7]; IC50 in the absence of Schisandrin B divided by IC50 in the presence of Schisandrin B (10 μg/ml)) was 25.7. The “IC50 Schisandrin B” value ([7]; anticancer drug toward K562/vcr in the presence of Schisandrin B (10 μg/ml), 48 h) was 0.19 ± 0.01 µg/mL, the IC50 ([8]; Homo sapiens, anticancer drug alone, 72 h, read-out: IC50 Control) was 1.42 ± 0.246 µg/mL and the “RF (Schisandrin B)” value ([8]; IC50 in the absence divided by IC50 in the presence of Schisandrin B (10 μg/ml)) was 20.57. The “RF (verapamil)” value ([8]; IC50 in the absence divided by IC50 in the presence of verapamil (6 μg/ml)) was 10.76, the “IC50 Schisandrin B” value ([8]; anticancer drug in the presence of Schisandrin B (10 μg/ml)) was 0.0691 ± 0.0137 µg/mL and the IC50 verapamil ([8]; anticancer drug in the presence of verapamil (6 μg/ml)) was 0.1324 ± 0.0086 µg/mL.
COc1cc2c(c(OC)c1OC)-c1c(cc3c(c1OC)OCO3)C[C@@H](C)[C@@H](C)C2 [Schisandrin B] was tested, and the “intracellular doxorubicin accumulation in K562/adr” value [9] was “restored intracellular doxorubicin accumulation”, the “intracellular distribution of daunorubicin and Rh-123 in MDR cancer cells” value [10] was “partially restored” and the “[3H]Azidopine binding with P-glycoprotein” value [11] was “inhibited”. For the same molecule, the “intracellular Rh-123 accumulation in KBV200” value [12] was “restored intracellular Rh-123 accumulation”, the MST [3] was 21.2 days and the T/C [3] was 101.9%. The “potency in reversing vincristine resistance of KBV200 relative to verapamil” value ([5]; Schisandrin B versus verapamil) was “about 5 folds”, the “intracellular daunorubicin accumulation in K562/adr” value [13] was “restored intracellular daunorubicin accumulation” and the “increase of sensitivity of K562/vcr to doxorubicin” value (shortened to “increase of sensitivity of K562/vcr”) ([7]; Schisandrin B 1 μg/ml) was “about 5 folds”. For the same molecule, the “increase of sensitivity of K562/vcr” value ([7]; Schisandrin B 10 μg/ml) was about 12 folds, the “increase of sensitivity of K562/vcr” value ([7]; Schisandrin B 20 μg/ml) was about 18 folds and the “cytotoxicity toward K562 cells” value [14] was “does demonstrate cytotoxicity”. For the same molecule, the “cytotoxicity toward normal human cells” value [15] was “does not demonstrate cytotoxicity”, the “cytotoxicity toward MDR cells” value [16] was “does not demonstrate cytotoxicity” and the “sensitivity of K562/adr to doxorubicin” value [17] was “greatly increased the sensitivity”.
